Legend:
[1] = system: enteroid fragments (primary intestinal epithelial cells); assay: Epithelial cell recovery and on-chip seeding of enteroid fragments generated with or without ROCK inhibitor; assay type: cell-based, human; conditions: ROCK inhibitor present during fragment isolation and seeding, images 24 h post seeding (FIG. 15)
Experimental: Representative images showing device seeded with enteroid fragments generated in the absence (−ROCK inhibitor) or presence (+ROCK inhibitor) were acquired 24 h post seeding. Equal cell seeding density and time was used for both of the conditions tested.
Prior to the establishment of primary cell culture in organ-on-chip microfluidic device, the hydrophobic PDMS surface is activated by oxygen plasma treatment and aminized with (3-aminopropyl)[…] silane (APTMS, SIGMA 281778). This surface functionalization allows for an improved cell attachment and facilitates long-term culture of intestinal stem cells and their progeny. Next ECM coating solution composed of 1% Matrigel (BD Corning, 356231) and 200 ug/ml Collagen I (BD Corning 3.36 mg/mL; 354226) is introduced in both the upper and the lower microfluidic channel and device is placed in a humidified 37° C. incubator for the minimum of 2 hours. Then human intestinal microvascular endothelial cells, e.g., purchased from ScienCell (Catalog #2900), are seeded on the bottom side of the porous stretchable PDMS membrane that separates two parallel microchannels of the organ-on-chip device. […]

[2] = system: small intestine-on-chip (primary human intestinal epithelium with or without HIMEC endothelium)
Description: As used herein, “differentially permeable”, e.g., in reference to an intestinal barrier, refers to the intestinal barrier displaying a resistance to the passage of certain molecules as compared to monolayers of, e.g., endothelial cells or undifferentiated intestinal epithelial cells. […] Such assays are described in the Examples herein in detail. Briefly, the apical side of the intestinal barrier is contacted with one or more tracer molecules and the concentration of the tracer later found on the basal side of the intestinal barrier.
• PROCEDURE. […]
Intestinal functional assessment and cytokine measurements. […] The concentration of dye that diffused through the membrane into endothelial channel was measured in the effluent, and apparent paracellular permeability (Papp) was calculated using the following formula:
[formula] where Vrec is volume receiver (endothelial compartment), Crec concentration receiver, A the seeded area and Cdon concentration donor (epithelial compartment). Cytokines released in the medium were quantified using U-PLEX Biomarker Assays for human Fractalkine, GM-CSF, IFN-γ, IL-1α, IL-1β, IL-6, IL-8, and IL-10 (Mesoscale Discovery).

Optimal Papp (apparent permeability) for small intestine-on-chip [2]	Papp [2]	Compound	epithelial cell recovery and on-chip seeding [1]
		C[C@@H](N)[C@H]1CC[C@H](C(=O)Nc2ccncc2)CC1 [ROCK inhibitor, Y-27632]	Improved epithelial cells recovery and on-chip seeding
~10 nm/s	1-2×10^−6	Lucifer Yellow	

From US12247227B2, “Methods relating to intestinal organ-on-a-chip” (PRESIDENT AND FELLOWS OF HARVARD COLLEGE, priority 2016, dated 2025)
